Measured values from patent US11679118B2, “Parasite therapy” (priority 2009, dated 2023).

What was measured:
[1] = system: D. fragilis or B. hominis; assay: Treatment of patients with D. fragilis and/or B. hominis infection (combined infection), symptoms and overall outcome; assay type: in vivo, Dientamoeba fragilis; Blastocystis hominis; settings: for stool examination after previous treatments / symptoms after previous treatments: patient, various treatments before referral; for outcome of previous treatments: patient with combined B. hominis and D. fragilis infection, 3 different treatments before referral
Description: In another aspect the present invention relates to triple combinations of drugs. In some circumstances, especially with resistance even triple therapies may need to be combined to effect a cure. […] Again, the treatment requires 1 mg-5 grams/day of each of the components from 1-50 days. Other triple combinations can include iodoquinol, furazolidone and nitazoxanide. Combinations can also include diloxinide furoate, doxycycline and metronidazole in various triple combinations.
(§1) The patient was brought into the clinic and after bowel preparation a transcolonoscopic infusion of furazolidone, nitazoxanide and secnidazole was carried out.
The patient was referred to the Clinic for treatment. Symptoms were quite severe and they were given a combination of four medications including Septrin DS (cotrimoxazole) two times a day, diloxanide furoate 500 mg three times a day and secnidazole 400 mg three times a day together with doxycycline 50 mg two times a day.

[2] = system: Giardia lamblia; assay: Treatment of a patient with chronic Giardiasis, follow-up by stool tests and symptoms; assay type: in vivo; settings: previous speculative treatment in adequate doses
Text: A patient with weight loss and diarrhea presented for an endoscopy.

[3] = system: B. hominis; assay: Treatment of patients with B. hominis infection, follow-up by stool test and symptoms; assay type: in vivo, Blastocystis hominis
[4] = system: B. hominis; settings: in Egypt; Rossignol et al 2005; cited from earlier work
[5] = system: D. fragilis; assay: Treatment of patients with D. fragilis infection, follow-up by stool test; assay type: in vivo, Dientamoeba fragilis; settings: clinical experience and usage; also frequently ineffective as monotherapy
Description: as §1

[6] = person, 400 mg bid for 14 days, at 6 months

O=C1OCCN1/N=C/c1ccc([N+](=O)[O-])o1 [furazolidone]
stool examination after previous treatments [1]: ongoing B. hominis and D. fragilis | symptoms after previous treatments [1]: improved but then they recurred

Cc1ncc([N+](=O)[O-])n1CCO [metronidazole]
outcome of previous treatments [1]: failed | stool examination after previous treatments [1]: ongoing B. hominis and D. fragilis | symptoms after previous treatments [1]: improved but then they recurred | Giardia lamblia infection, histologically at endoscopy [2]: continued to have Giardia lamblia infection | diarrhea [2]: did not settle | outcome of previous therapies ([3]; resistant Blastocystis hominis, multiple therapies before referral): failed

CC(=O)Oc1ccccc1C(=O)Nc1ncc([N+](=O)[O-])s1 [nitazoxanide]
stool examination after previous treatments [1]: ongoing B. hominis and D. fragilis | symptoms after previous treatments [1]: improved but then they recurred | effectiveness against Blastocystis hominis [4]: effective

CCn1cc(C(=O)O)c(=O)c2cc(F)c(N3CCNCC3)cc21 [norfloxacin]
effectiveness in treatment against Dientamoeba fragilis [5]: effective | effectiveness in treatment against Blastocystis hominis ([3]; clinical experience and usage, also frequently ineffective as monotherapy): effective | stool test for B. hominis [3, 6]: negative for B. hominis again | symptoms [3, 6]: still asymptomatic | stool test for B. hominis ([3]; person, 400 mg bid for 14 days, follow up at 4 weeks): negative for B. hominis

CCS(=O)(=O)CCn1c([N+](=O)[O-])cnc1C [tinidazole]
outcome of previous treatments [1]: failed
